Results reported in US12083172B2, “Vaccines against an oncogenic isoform of HER2 (ErbB2) and methods of using the same” (Duke University, priority 2014, dated 2024).
“Also recorded” adds a separate entry of the source. Like-named read-outs stand apart in the source and are kept apart here.

Assays:
[1] = system: MM3MG cells stably expressing HER2d16; conditions: MM3MG-HER2d16 s.c. in SCID-Beige mice; for effect of lapatinib on growth of HER2d16 tumors: lapatinib oral gavage 75 mg/kg, 5 times a week, from day 8, FIG. 7, 75 mg/kg
Protocol: (§1) MM3MG cells stably expressing the indicated genes were implanted subcutaneously into SCID-Beige mice (100,000 per mouse in PBS) at days 0. Mice were treated weekly with T-DM1 via tail vein injection (200 μg/mouse) beginning at day 10. Tumor growth was measured by calipers at the indicated days (N=5, bars represent SE).
as §1, with “lapatinib by oral gavage (75 mg/kg/5 days week)” for “T-DM1 via tail vein injection (200 μg/mouse) beginning”, “8.” for “10.”
(§2) Experiments using BALB/c, and SCID-Beige mice (obtained from Jackson Labs) were done in accordance with Duke Institutional Animal Care and Use Committee-approved protocols. For tumor vaccine experiments, Human HER2-transgenic mice (kindly provided by Dr. Wei-Zen Wei, Wayne State University, Detroit, MI^4) were crossed with BALB/c mice (Jackson Labs) to permit implantation of MM3MG-HER2d16 tumors and genotyped by PCR as previously described^5. In immnodeficient animals, stable cells were injected s.c. into the flank of SCID-beige mice (at indicated cells/animal) and measured as indicated. Tumor measurements were made using calipers and volumes calculated using the formula [v=width×width×(length/2)] whereas statistical differences were calculated using a mixed effects regression model using autoregressive covariance. In treatment experiments, T-DM1 was weekly delivered via tail vein (200 μg/mouse) while Lapatinib was given by oral gavage (5 times a week, 75 mg/kg).

HER2-WT MM3MG = conditions: MM3MG-HER2-WT s.c. in SCID-Beige mice; T-DM1 weekly via tail vein, 200 μg/mouse, from day 10; FIG. 6
Protocol: as §1, §2

Compound | effect of lapatinib on growth of HER2d16 tumors [1] | effect of lapatinib on growth of HER2d16 tumors ([1]; listed as lapatinib) | effect of T-DM1 on growth of HER2d16 tumors ([1]; T-DM1 weekly via tail vein, 200 μg/mouse, from day 10, FIG. 6) | effect of T-DM1 on growth of HER2-WT MM3MG tumors (HER2-WT MM3MG)
CS(=O)(=O)CCNCc1ccc(-c2ccc3ncnc(Nc4ccc(OCc5cccc(F)c5)c(Cl)c4)c3c2)o1 [Lapatinib] | only had a minor effect | resistant | – | –
Trastuzumab-DM1 [T-DM1] | – | – | more resistant; also recorded: only weakly impacted | significantly suppressed
